# Active and inactive are the calls of the source. No cut-off for these calls is given here.
# Legend:
# [1] = tested on: T-24; assay: Induction of ferroptosis in human T-24 cells assessed as cellular GPx4 level at 4 uM by HPLC-EC analysis (reference value: 1.71 +/- 0.07 U/mg); type: functional
# [2] = tested on: T-24; assay: Induction of autophagy in human T-24 cells assessed as decrease in Akt phosphorylation at 6 to 12 uM incubated for 12 hrs in presence of IGF-1 by Western blot analysis; type: functional, cell-based; details: dose 6-12 µM
# [3] = tested on: T-24; assay: Induction of mitochondrial membrane potential disruption in human T-24 cells assessed as ratio of green/red fluorescence intensity at 12 uM by JC-1 dye based flow cytometry analysis (reference value: 0.29 +/- 0.04); type: functional
# [4] = tested on: T-24; assay: Induction of apoptosis in human T-24 cells assessed as late apoptotic cells at 6 uM incubated for 8 hrs by annexin V-FITC and PI staining based flow cytometry analysis (reference value: 1.71 %); type: functional
# [5] = tested on: T-24; assay: Induction of ferroptosis in human T-24 cells assessed as cellular GPx4 level at 2 uM by HPLC-EC analysis (reference value: 1.71 +/- 0.07 U/mg); type: functional
# [6] = tested on: T-24; assay: Induction of ferroptosis in human T-24 cells assessed as increase in intracellular iron level at 12 uM in presence of Fer-1 by ICP-MS analysis (reference value: 860.2 +/- 62.3 pg); type: functional
# [7] = tested on: T-24; assay: Induction of apoptosis in human T-24 cells assessed as increase in vZAD-reduced caspase-8 activation pretreated with vZAD for 1 hr followed by compound addition and measured upto 8 hrs by Western blot analysis; type: functional, cell-based; details: dose 2-10 µM, time hrs <=8
# [8] = tested on: T-24; assay: Induction of ferroptosis in human T-24 cells assessed as downregulation of GPx4 by Western blot analysis; type: functional, cell-based; details: dose 6-12 µM
# [9] = tested on: T-24; assay: Induction of ferroptosis in human T-24 cells assessed as downregulation of xCT by Western blot analysis; type: functional, cell-based; details: dose 6-12 µM
# [10] = tested on: T-24; assay: Induction of apoptosis in human T-24 cells assessed as necrotic cells at 3 uM incubated for 8 hrs by annexin V-FITC and PI staining based flow cytometry analysis (reference value: 0.84 %); type: functional
# [11] = tested on: T-24; assay: Induction of autophagy in human T-24 cells assessed as effect on Akt level at 6 to 12 uM incubated for 12 hrs by Western blot analysis; type: functional, cell-based; details: dose 6-12 µM
# [12] = tested on: T-24; assay: Induction of ferroptosis in human T-24 cells at 6 to 10 uM by Western blot analysis; details: dose 6-10 µM
smiles,measurement,setting,value
O=C(Nc1cccc(CNc2ncnc3ccccc23)c1)Nc1ccc(Cl)c(Cl)c1,Activity,[1],1.82 U/mg
same,Activity,[2],inactive
same,fold change (FC),[3],29.4
same,Activity,[4],4.47%
same,Activity,[5],2.13 U/mg
same,Activity,[6],1275.9 pg
same,Activity,[7],Dose-dependent effect
same,Activity,[8],Dose-dependent effect
same,Activity,[9],Dose-dependent effect
same,Activity,[10],3.89%
same,Activity,[11],Active
same,Activity,[12],Active
